Data published in publication PMC9489211, “Regulation of pulmonary surfactant by the adhesion GPCR GPR116/ADGRF5 requires a tethered agonist-mediated activation mechanism” (eLife, 2022).
Where a SMILES comes first, the peptide text is derived from it. Where no end group is shown, it is not given here. [ ]: non-standard residue; d: D form. Nle = CCCC[C@H](N)C(=O)O

How the values were obtained:
[1] = molecular target: T1, full-length hGPR116 (HEK293 clone A6) (Homo sapiens, UniProt Q8IZF2); assay: Calcium transient assay, full-length hGPR116 stably expressed in HEK293 (clone A6); type: cell-based; conditions: calcium transients, hFL clone A6, Figure 3-figure supplement 2 / Figure 7A
T1 construct: expressed in transfected cells
T1 sequence (Q8IZF2 22-1346): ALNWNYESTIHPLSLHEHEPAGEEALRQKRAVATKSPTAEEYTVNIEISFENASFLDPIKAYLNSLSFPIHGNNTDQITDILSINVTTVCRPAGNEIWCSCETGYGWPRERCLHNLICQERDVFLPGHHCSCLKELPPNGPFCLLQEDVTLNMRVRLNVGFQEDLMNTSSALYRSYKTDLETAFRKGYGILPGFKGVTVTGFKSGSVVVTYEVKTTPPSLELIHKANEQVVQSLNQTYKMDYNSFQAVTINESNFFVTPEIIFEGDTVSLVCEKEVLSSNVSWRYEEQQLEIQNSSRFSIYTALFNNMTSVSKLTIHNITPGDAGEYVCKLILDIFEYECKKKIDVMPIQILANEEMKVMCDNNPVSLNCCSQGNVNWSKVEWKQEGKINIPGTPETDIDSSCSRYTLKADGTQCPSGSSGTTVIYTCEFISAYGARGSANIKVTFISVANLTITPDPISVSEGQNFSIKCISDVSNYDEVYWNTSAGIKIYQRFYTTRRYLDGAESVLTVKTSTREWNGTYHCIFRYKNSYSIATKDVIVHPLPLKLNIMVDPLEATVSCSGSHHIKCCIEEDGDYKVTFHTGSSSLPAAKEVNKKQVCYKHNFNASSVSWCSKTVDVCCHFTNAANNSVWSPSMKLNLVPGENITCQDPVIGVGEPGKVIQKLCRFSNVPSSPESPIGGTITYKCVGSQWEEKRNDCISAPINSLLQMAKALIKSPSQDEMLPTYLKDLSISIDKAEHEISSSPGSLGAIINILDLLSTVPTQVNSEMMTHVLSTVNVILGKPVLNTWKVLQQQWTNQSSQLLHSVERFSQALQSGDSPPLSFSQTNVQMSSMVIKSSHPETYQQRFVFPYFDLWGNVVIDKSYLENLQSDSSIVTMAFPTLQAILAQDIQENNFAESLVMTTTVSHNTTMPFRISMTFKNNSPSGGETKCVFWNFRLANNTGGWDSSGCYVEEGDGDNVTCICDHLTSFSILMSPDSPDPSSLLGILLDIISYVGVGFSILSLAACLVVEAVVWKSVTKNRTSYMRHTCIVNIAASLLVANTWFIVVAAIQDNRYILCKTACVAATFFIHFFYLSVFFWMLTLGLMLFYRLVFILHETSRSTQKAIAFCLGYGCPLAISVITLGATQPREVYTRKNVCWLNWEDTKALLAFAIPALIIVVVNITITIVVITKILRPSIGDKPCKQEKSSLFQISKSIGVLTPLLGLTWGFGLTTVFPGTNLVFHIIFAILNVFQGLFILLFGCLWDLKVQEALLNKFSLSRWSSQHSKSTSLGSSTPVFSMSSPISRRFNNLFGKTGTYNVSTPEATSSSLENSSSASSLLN
Protocol: (§1) For some constructs, stable populations were generated by treating the cells with G418. After complete selection of resistant cells, these were used in assays. Stable HEK293 clones for full-length hGPR116 (clone A6) and mGPR116 (clone 3C) were described earlier ([Brown et al., 2017]).
(§2) HEK293 cells were seeded in 384-well plates (Greiner, #781946) at 30,000 cells/well. Medium was removed the following day and cells were loaded for 2 hr at 37°C, 5% CO2 with 20 µl Calcium 6 loading buffer (Molecular Devices, Cat# R8191): 1× HBSS (Gibco, Cat# 14065.049) containing 20 mM HEPES (Gibco, Cat#15630) and 2.5 mM probenecid (Sigma, Cat# P8761). Plates were then transferred to a FDSS7000 fluorescence plate reader (HAMAMATSU, Japan) and Ca^2+ responses were measured in real time using a CCD camera with excitation 480 nm/emission 540 nm. Prior to stimulation, baseline measurements were recorded over 5 s (Fmin). For stimulation, 20 µl of test compounds prepared 2× in HBSS containing 20 mM HEPES were dispensed. Fluorescence was read over 1–1.5 min. Maximum fluorescence (Fmax) was determined and normalized to baseline. Data are reported as ∆F/F = (Fmax – Fmin)/Fmin. Adequate response of the endogenous M3R was verified for each transfection, using carbachol at 100 µM and following the same procedure as for the peptide activation.
(§3) Concentration response curves were analyzed using GraphPad Prism 9.2.0. Potency was determined using a nonlinear regression model with variable slope, and statistical significance was determined using a one-way ANOVA followed by Dunnett’s multiple comparison test or a TTEST for comparison of two data sets (*p<0.05, **p<0.01, ***p<0.001, ****p<0.0001, ns, not significant).

hCTFbax G1011K = molecular target: T2, hCTFbax G1011K (Homo sapiens, UniProt Q8IZF2, G1009K); assay: Calcium transient assay, hCTFbax G1011K; type: cell-based; conditions: calcium transients, Figure 7C
T2 construct: tethered peptide (993 - 1008); expressed in transfected cells
T2 sequence (Q8IZF2 997-1346 G1009K): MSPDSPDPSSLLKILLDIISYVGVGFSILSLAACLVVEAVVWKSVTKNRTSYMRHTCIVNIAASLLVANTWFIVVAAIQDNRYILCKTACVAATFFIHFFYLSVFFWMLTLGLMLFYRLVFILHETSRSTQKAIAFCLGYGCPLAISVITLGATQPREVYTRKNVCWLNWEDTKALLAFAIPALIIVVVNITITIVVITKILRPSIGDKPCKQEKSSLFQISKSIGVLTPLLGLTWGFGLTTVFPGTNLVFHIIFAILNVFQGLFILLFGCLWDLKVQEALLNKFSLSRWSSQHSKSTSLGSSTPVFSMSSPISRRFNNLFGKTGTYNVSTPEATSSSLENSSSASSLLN
Protocol: The hCTFbax construct was generated independently of the mCTFbax, using a strategy (Nt deletion) based on emerging knowledge and appropriate for the planned studies, although no difference in functionality is expected between the two approaches. The hCTFbax mBS chimera was derived from this construct by gene synthesis. Other mutants of the human GPR116 CTF or full-length constructs were generated by site-directed mutagenesis using PCR-based techniques.
HEK293 cells were seeded in 384-well plates (Greiner, #781946) at 30,000 cells/well. […] Plates were then transferred to a FDSS7000 fluorescence plate reader (HAMAMATSU, Japan) and Ca^2+ responses were measured in real time using a CCD camera with excitation 480 nm/emission 540 nm. Prior to stimulation, baseline measurements were recorded over 5 s (Fmin). […] Fluorescence was read over 1–1.5 min. Maximum fluorescence (Fmax) was determined and normalized to baseline. […]
as §3

[2] = molecular target: T3, full-length mGPR116 (HEK293 clone 3C) (Mus musculus, UniProt G5E8Q8); assay: Calcium transient assay, full-length mGPR116 stably expressed in HEK293 (clone 3C); type: cell-based; conditions: calcium transient assay, HEK293 clone 3C, Fig 3F
T3 construct: expressed in transfected cells
T3 sequence (G5E8Q8 22-1348): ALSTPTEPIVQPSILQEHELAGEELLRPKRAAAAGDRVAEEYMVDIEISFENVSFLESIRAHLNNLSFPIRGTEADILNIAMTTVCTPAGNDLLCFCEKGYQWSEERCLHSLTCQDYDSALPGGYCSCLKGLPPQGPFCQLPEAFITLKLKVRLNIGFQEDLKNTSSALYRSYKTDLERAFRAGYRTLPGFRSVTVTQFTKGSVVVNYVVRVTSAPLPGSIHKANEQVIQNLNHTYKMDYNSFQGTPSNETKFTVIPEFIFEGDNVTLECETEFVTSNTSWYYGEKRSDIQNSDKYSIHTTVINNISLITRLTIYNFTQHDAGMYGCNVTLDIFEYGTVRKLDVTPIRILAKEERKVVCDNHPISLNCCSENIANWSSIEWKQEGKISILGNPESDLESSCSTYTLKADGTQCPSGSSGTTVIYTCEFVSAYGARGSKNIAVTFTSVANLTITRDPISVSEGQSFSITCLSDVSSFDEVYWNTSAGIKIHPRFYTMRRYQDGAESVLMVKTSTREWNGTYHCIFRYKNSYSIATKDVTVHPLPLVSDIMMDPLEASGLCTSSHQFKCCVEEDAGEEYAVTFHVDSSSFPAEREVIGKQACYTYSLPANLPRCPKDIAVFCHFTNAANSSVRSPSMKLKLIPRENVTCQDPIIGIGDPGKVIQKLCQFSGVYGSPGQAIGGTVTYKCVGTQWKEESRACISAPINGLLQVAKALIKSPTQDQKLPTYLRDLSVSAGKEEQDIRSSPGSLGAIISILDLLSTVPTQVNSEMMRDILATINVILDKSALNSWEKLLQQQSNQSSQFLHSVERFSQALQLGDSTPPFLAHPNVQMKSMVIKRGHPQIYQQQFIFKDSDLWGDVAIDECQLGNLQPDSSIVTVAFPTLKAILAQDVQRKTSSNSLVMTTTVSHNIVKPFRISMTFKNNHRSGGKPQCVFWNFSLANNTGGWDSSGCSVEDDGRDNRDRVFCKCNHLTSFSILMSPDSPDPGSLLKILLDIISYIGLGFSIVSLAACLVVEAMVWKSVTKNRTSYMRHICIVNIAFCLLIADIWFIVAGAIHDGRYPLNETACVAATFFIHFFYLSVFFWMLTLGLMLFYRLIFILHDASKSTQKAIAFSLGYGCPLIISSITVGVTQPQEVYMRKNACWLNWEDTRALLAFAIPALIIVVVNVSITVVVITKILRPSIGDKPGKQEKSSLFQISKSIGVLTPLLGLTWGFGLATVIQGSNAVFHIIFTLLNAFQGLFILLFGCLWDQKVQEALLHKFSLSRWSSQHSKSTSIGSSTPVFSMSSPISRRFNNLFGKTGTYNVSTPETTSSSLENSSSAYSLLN
Protocol: as §1, §2, §3

[3] = system: mouse GPR116 CTF (mCTF) single alanine mutants; assay: IP1 accumulation, mCTF single alanine mutants of the tethered agonist stimulated with exogenous GAP; type: cell-based; conditions: transiently transfected HEK293, Figure 3E
Protocol: HEK293 cells were seeded in 12-well plates at a density of 1.5 × 10^5 cells per well and transiently transfected with plasmids expressing wild-type, wild-type mGPR116-FLAG, CTF-FLAG, or alanine mutants of CTF-FLAG. Then, 24 hr post transfection, media were removed and replaced with serum-free Modified Eagles Medium (MEM; Mediatech) containing 1 µCi/ml of 3H-myo-inositol (PerkinElmer Life Sciences). Also, 48 hr […], media were removed and replaced with serum-free media supplemented with 20 mM LiCl for 3 hr. For samples to be stimulated with GAPs, the peptides were added at the appropriate concentration when the media were replaced with that supplemented with LiCl. […] Columns were washed twice with distilled H2O, total inositol phosphates (IP) were eluted with 4.0 ml of 0.1 M formic acid and 1 M ammonium formate, and eluates containing accumulated inositol phosphates were counted in a liquid scintillation counter. Then, 50 μl of neutralized supernatant was counted in a liquid scintillation counter to measure total incorporated 3H-myo-inositol. Data are expressed as accumulated inositol phosphate over total incorporated 3H-myo-inositol. […]
IP1 accumulation was measured using the manufacturer’s instructions (IP-One, Cisbio 62IPAPEC). […] Plates were read at 665 and 620 nm on an EnVision Xcite Multilabel reader (PerkinElmer, # 2104-0020). […]

[4] = system: mCTFbax Y1158A, R1160A, W1165A, L1166A, T1240A; assay: Calcium transient assay, alanine scan of ECLs in mCTFbax; type: cell-based, mouse; conditions: transiently transfected HEK293, Figure 4B
Protocol: Human and mouse GPR116 full-length constructs (hFL and mFL, respectively) have been described earlier, as well as the mouse CTF constructs (mCTF) with N-terminal mCherry or FLAG ([Brown et al., 2017]). […] Mutants of these constructs have been generated by site-directed mutagenesis using PCR-based techniques.
as §2

Compound	activation of the human full-length receptor (in words) [1]	response of hCTFbax G1011K (in words) (hCTFbax G1011K)	EC50 (uM) n=1 ([2]; independent experiment n=1 (mean of quadruplicate))	EC50 (uM) n=2 ([2]; independent experiment n=2 (mean of quadruplicate))	EC50 (uM) n=3 ([2]; independent experiment n=3 (mean of quadruplicate))	activation of mCTF single alanine mutants, IP1 accumulation (in words) [3]	activation of mCTFbax ECL alanine mutants (in words) [4]
CCCC[C@H](NC(=O)[C@H](CC(C)C)NC(=O)[C@@H](NC(=O)[C@H](CO)NC(=O)[C@H](Cc1ccccc1)NC(=O)[C@H](CO)NC(=O)[C@@H]1CCCN1)[C@@H](C)CC)C(=O)N[C@@H](CO)C(=O)N1CCC[C@H]1C(=O)N[C@@H](CC(=O)O)C(=O)O [GAP10-Pro1] (H-PSFSIL[Nle]SPD-OH; N-terminus and C-terminus assumed)	little to no effect	did not robustly respond					
TSFSILMSPDSPDP [GAP14]			29.9 µM	26.3 µM	46.4 µM	strongly activated the mutant receptors	unresponsive to GAP14-mediated activation
